Literature values, collected in patent publication US12667644B2, “Iodine-infused ultra high molecular weight polyethylene” (Biomet Manufacturing, LLC, priority 2019, dated 2026).

System: microbes

Substance: povidone-iodine
- minimum concentration required to achieve antimicrobial activity: about 2 ppm
